Data published in patent US8623914B2, “Medical composition” (TSUMURA & Co., priority 2011, dated 2014).

Legend:
Parameters in all cases: species or system rat
[1] = system: large intestinal peristaltic motility; assay: Test 1: action of each Daikenchuto component on peristaltic motility of the isolated intestine in an organ bath; conditions: for AUC (area under curve peak) / Mean-PPA (mean of peak pressure amplitude) / PF (peak frequency): value before addition = 100%
Method: Investigation of the Action of Each Crude Drug Component Contained in Daikenchuto on the Large Intestinal Peristaltic Motility:
Rats were used as experimental animals. According to the following way, the components contained in Daikenchuto, i.e., HAS, 6-shogaol (hereinafter abbreviated as “6-S”) and 6-gingerol (hereinafter abbreviated as “6-G”), were tested for the action on the peristaltic motility.
Male SD rats (provided by Japan Charles River Co.; SPF animals) were obtained at 6 weeks of age (body weight: 190-220 g) and the test was started at 7-9 weeks of age (body weight: 220-280 g at acquisition and using). Breeding was conducted at a temperature of 20-26° C. and a humidity of 35-75%, in aeration frequency of 15-25/hour in a cage under lighting for 12 hours (7 o'clock to 19 o'clock) per day, wherein 4 rats were placed in a cage. For feeding, solid feed MF (Oriental Yeast Co., Ltd.) was used, and the rats were able to freely drink ordinary tap water (Amimachi, Ibaraki Pref).
(§1) Normal rats which fasted overnight with free access to water were decapitated for mercy killing. Immediately, the intestine was removed and cut into 3-4 cm pieces, which were used as test samples. The removed test samples were immersed in an organ bath (perfusion rate: 3.5 mL/min) filled with a Krebs solution warmed at 32-33° C. and saturated with 95% O2/5% CO2 gas mixture. […] From the mouth side, physiological saline was injected at a certain rate (0.15 mL/min), and the frequency and amplitude of the pressure change in the lumen caused by the intestinal peristaltic motility were measured by means of a microchip pressure transducer (SPR-524, Millar Instruments Co.). After confirmation of the stabilized peristaltic motility in the test samples (intestinal tract), a test drug was added to the organ bath. Before and after the addition, the change of peristaltic motility for 10 minutes was determined by using recorded wave profile for the mean peak pressure amplitude (mean-PPA), the area under curve (AUC) of the peak and the peak frequency (PF) in the transducer. The resulting recorded wave profile was converted into numerical terms as the amplitude or frequency of the peristaltic motility by an analysis software. The value before the addition of the test drug was regarded as 100% for comparison and evaluation.

[2] = system: intestinal peristaltic motility; assay: Test 2: peristaltic motility, combinations of HAS with 6-S or 6-G, same manner as Test 1; conditions: for AUC (area under curve peak) / Mean-PPA (mean of peak pressure amplitude) / PF (peak frequency): value before addition = 100%; for enhancement of the prokinetic effect on peristaltic motility by combining with HAS (in words): combined with HAS at a dose too low to exert the effect when used alone
Method: as §1
On the basis of the prokinetic effect of HAS, 6-S and 6-G on peristaltic motility in Test 1, the change of the prokinetic effect in a combination of these compounds was investigated in the same manner as in Test 1.

[3] = system: intestinal peristaltic motility; assay: Test 3: peristaltic motility, HAS and CAP alone and combined, same manner as Test 1; conditions: for AUC (area under curve peak) / Mean-PPA (mean of peak pressure amplitude) / PF (peak frequency): value before addition = 100%
Method: as §1
The respective prokinetic effect of HAS and CAP on peristaltic motility and change of the effect in a combination of these compounds were investigated in the same manner as in Test 1.

[4] = system: intestinal peristaltic motility; assay: Test 4: peristaltic motility, HAS and bethanechol chloride alone and combined, same manner as Test 1; conditions: for AUC (area under curve peak) / Mean-PPA (mean of peak pressure amplitude) / PF (peak frequency): value before addition = 100%
Method: as §1, with “After confirmation of the stabilized peristaltic motility in the test samples (intestinal tract), a test drug was added to the organ bath. Before and after the addition, the change of peristaltic motility for 10 minutes was determined by using recorded wave profile for the mean peak pressure amplitude (mean-PPA), the area under curve (AUC) of the peak and the peak frequency (PF) in the transducer.” left out

[5] = HAS 3 μM + CAP 0.03 μM versus CAP alone

Row | Structure (SMILES) | prokinetic effect on peristaltic motility (in words) ([1]; 1 μM) | AUC (area under curve peak) ([1]; 1 μM) | Mean-PPA (mean of peak pressure amplitude) ([1]; 1 μM) | PF (peak frequency) ([1]; 1 μM) | prokinetic effect on peristaltic motility (in words) ([1]; 10 μM) | AUC (area under curve peak) ([1]; 10 μM) | Mean-PPA (mean of peak pressure amplitude) ([1]; 10 μM) | PF (peak frequency) ([1]; 10 μM) | AUC (area under curve peak) ([2]; 3 μM) | Mean-PPA (mean of peak pressure amplitude) ([2]; 3 μM) | PF (peak frequency) ([2]; 3 μM) | enhancement of the prokinetic effect on peristaltic motility by combining with HAS (in words) [2] | other results
1 | CCCCC[C@H](O)CC(=O)CCc1ccc(O)c(OC)c1 [6-G, 6-gingerol] | weak prokinetic effect | 120.5% | 141.1% | 115.0% | significant prokinetic effect | 188.2% | 304.2% | 76.9% | 174.9% | 235.8% | 102.9% | potent enhancement | –
2 | CCCCC/C=C/C(=O)CCc1ccc(O)c(OC)c1 [6-S, 6-shogaol] | promoted weakly | 133.3% | 202.6% | 102.6% | prokinetic effect disappeared | 73.4% | 94.6% | 120.8% | – | – | – | potent enhancement | AUC (area under curve peak) ([2]; 1 μM): 133.3%; Mean-PPA (mean of peak pressure amplitude) ([2]; 1 μM): 202.6%; PF (peak frequency) ([2]; 1 μM): 115.0%
3 | C/C=C/C=C/C=C\CC/C=C/C(=O)NCC(C)(C)O [HAS, Hydroxy-α-sanshool] | – | – | – | – | very strong prokinetic effect | 227.9% | 478.2% | 52.5% | 99.0% | 101.2% | 93.0% | – | prokinetic effect on peristaltic motility (in words) ([1]; 3 μM): no influence; AUC (area under curve peak) ([1]; 3 μM): 121.5%; Mean-PPA (mean of peak pressure amplitude) ([1]; 3 μM): 119.5%; PF (peak frequency) ([1]; 3 μM): 98.3%; AUC (area under curve peak) ([3]; 3 μM): 110.2%; Mean-PPA (mean of peak pressure amplitude) ([3]; 3 μM): 105.7%; PF (peak frequency) ([3]; 3 μM): 98.7%; enhancement by HAS of the increase in AUC induced by CAP [3, 5]: ~4.6 times; enhancement by HAS of the increase in PPA induced by CAP [3, 5]: about 9.8 times; AUC (area under curve peak) ([4]; 3 μM): 130.6%; Mean-PPA (mean of peak pressure amplitude) ([4]; 3 μM): 105.2%; PF (peak frequency) ([4]; 3 μM): 84.6%; enhancement by HAS of the increase in PF induced by Beth ([4]; HAS 3 μM + Beth 1 μM versus Beth alone): twice or more
4 | CC(C[N+](C)(C)C)OC(N)=O (centres unmarked) [Beth, bethanechol chloride] | – | – | – | – | – | – | – | – | – | – | – | – | AUC (area under curve peak) ([4]; 1 μM): 87.6%; Mean-PPA (mean of peak pressure amplitude) ([4]; 1 μM): 98.9%; PF (peak frequency) ([4]; 1 μM): 153.8%
5 | COc1cc(CNC(=O)CCCC/C=C/C(C)C)ccc1O [CAP, capsaicin] | – | – | – | – | – | – | – | – | – | – | – | – | AUC (area under curve peak) ([3]; 0.03 μM): 147.1%; Mean-PPA (mean of peak pressure amplitude) ([3]; 0.03 μM): 143.7%; PF (peak frequency) ([3]; 0.03 μM): 108.1%
